According to publication PMC2121212 (The Journal of Experimental Medicine, 2006):
No end group written: not given here.

Columns and labels:
CD4 T cell response = settings: in vivo response to variant when encoded in MalE (Fig. 4); ref [28]; cited from earlier work
[1] = test system: antigen-specific T cell hybridomas stimulated by APCs that do or do not express DM; type: cell-based, murine; settings: for DM enhancement (fold DM effect): overnight, CTLL/MTT read-out
[2] = test system: additional HEL [11–25]–specific and LACK [156–173]–specific T cell hybridomas; experiment: Presentation to additional independently derived T cell hybridomas; type: cell-based, murine; settings: compared with original T cells
I-A^d = molecular target: T1, I-A^d (Mus musculus, UniProt P01921+P04228); type: binding, murine
T1 sequence (P04228 24-111 limits assumed): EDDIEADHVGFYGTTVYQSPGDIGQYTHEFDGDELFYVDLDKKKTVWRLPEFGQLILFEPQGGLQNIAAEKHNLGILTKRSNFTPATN
T1 sequence (P01921 28-122 limits assumed): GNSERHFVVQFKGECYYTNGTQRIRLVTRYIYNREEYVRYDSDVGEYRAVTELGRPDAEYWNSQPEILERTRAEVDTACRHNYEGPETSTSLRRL

[3] = test system: antigen-specific T cells stimulated by APCs that do or do not express DM; experiment: Presentation from native protein versus MalE; type: cell-based, murine; settings: native protein vs MalE (Fig. S1)

## T128G: HA [126–138] P1 substitution (T128G) (HNGNGVTAACSHE)
CD4 T cell response
  Immunogenicity of variant encoded in MalE: cryptic

## T128Q: kinetic stability variant of HA [126–138] (HNQNGVTAACSHE)
[1]
  DM enhancement (fold DM effect): 3.5 ± 0.7 fold
CD4 T cell response
  Immunogenicity of variant encoded in MalE: immunogenic

## HA [126–138]: derived from the influenza hemagglutinin molecule (HNTNGVTAACSHE) [reference compound]
[1]; APCs pulsed with peptide instead of protein (Fig. 1 G, H; Fig. 2 B)
  Presentation of synthetic peptide pulsed on DM^+ vs DM^− APCs: equivalent
[1]; epitope encoded within MalE, DM^+ vs DM^− APCs (Figs. 1 and 2, Table II)
  Effect of DM expression on presentation: modestly antagonized

## R14Q, N19A, G22S: triple substitution HEL [11–25] variant (AMKQHGLDAYRSYSL; also: fluorescein (FITC) label, position not given here)
[1]
  DM enhancement (fold DM effect): 29.7 ± 7.6 fold
[2]
  DM effect detected by additional T cell hybridomas: confirmed this effect on the efficiency of presentation pattern with two additional, independently derived HEL [11–25]–specific hybridomas
I-A^d
  Increase in kinetic stability: threefold

## T128V, S136T: kinetic stability variant of HA [126–138] (HNVNGVTAACTHE)
CD4 T cell response
  Immunogenicity of variant encoded in MalE: cryptic

## V131A: HA [126–138] P4 substitution (V131A) (HNTNGATAACSHE)
CD4 T cell response
  Immunogenicity of variant encoded in MalE: cryptic

## T128M: high stability HA variant T128M (HNMNGVTAACSHE)
CD4 T cell response
  Immunogenicity of variant encoded in MalE: immunogenic

## HEL [11-25]: cryptic epitope derived from HEL, which has an unstable interaction with class II molecules (AMKRHGLDNYRGYSL; also: fluorescein (FITC) label, position not given here) [reference compound]
[1]
  Fold more protein required on APCs expressing DM (antagonism): ~10 fold
[3]
  Influence of protein context on DM-mediated presentation: independent of the protein context from which the peptide epitope is derived
